# Test results from PubChem BioAssay AID2060495 (Molecular Pharmacology Branch, DTP, NCI, 2025).
# System: 521955-158-R2-J5-PDC complex spheroid viability
# Experiment: Anticancer human tumor 521955-158-R2-J5-PDC patient-derived pancreatic carcinoma cell line growth inhibition [GQUAD]
# Settings: for IC50: curve of first compound; for viability, T/C: stronger effect = lower value
# From the text: DNA G-quadruplex Stabilizer Agents in Combinations in Complex Spheroids
# A high-throughput screen of multi-cell type tumor spheroids was designed to identify active combinations of DNA G-quadruplex stabilizer agents and targeted small molecules. Complex spheroids include a stromal component modeled by human endothelial cells (HUVEC) and fibroblasts modeled by human mesenchymal stem cells (MSCs). The concentration ranges selected for each drug and investigational agent were based upon clinically achievable concentrations if the clinical Cmax of the agent was known.
# Compounds. The drugs and investigational agents: pidnarulex (CX-5461; NSC782164), APTO-253 (NSC789042), BRACO-19 (NSC847499), peposertib (NSC802822), ceralasertib (NSC780249), elimusertib (NSC800525), camonsertib (NSC841442), AZD-1390 (NSC803789), olaparib (NSC753686), talazoparib (NSC767125), ART-558 (NSC835418), sotorasib (NSC818433), MRTX-1133 (NSC836407), SN-38 (NSC673596), topotecan (NSC609699), etoposide (NSC141540), doxorubicin (NSC123127), gemcitabine (NSC613327), 5-fluorouracil (NSC19893), paclitaxel (NSC125973), vemurafenib (NSC761431), panobinostat (NSC761190), R-306465 (JNJ-16241199; NSC773264), adavosertib (NSC754352), TP-3654 (NSC805149), carboplatin (NSC241240), KSQ-4279 (NSC840948), and staurosporine (NSC755774) were obtained from the National Cancer Institute (NCI) Developmental Therapeutics Program Chemical Repository (34). The FDA-approved anticancer drug set is available from the NCI Developmental Therapeutics Program. […] The stock solutions were prepared in dimethyl sulfoxide (DMSO, Sigma-Aldrich, St. Louis, MO, cat. D2650) at 800-fold the tested concentration and stored at -70 degrees C prior to their use. All drugs and investigational agents were tested over a range starting from a high concentration at or near the clinical Cmax and decreasing in half-log increments. If the clinical Cmax for an agent had not been determined, the highest concentration tested was 10 microM.
# 2.3 Cell Culture. All cells were maintained in an incubator at 37 degrees C and 5% CO2 with 95% humidity. The PDC lines were cultured according to standard operating procedures established by the NCI PDMR. All PDCs were thawed and cultured in Matrigel-coated flasks prepared with a working solution of 1X Ham's F-12 nutrient mix, without supplementation (Invitrogen, cat. 11765054), 100 U/mL penicillin-streptomycin (Invitrogen, cat. 15140122), and 2.5% Matrigel (Corning Inc., cat. 354248) for the first three passages. The 857933-349-R-J2-PDC line was cultured in 6C/Colon 1B media, which includes advanced DMEM/F-12 (Thermo Fisher Scientific, cat. 12634028), 10 mM HEPES (Thermo Fisher Scientific, cat. 15630080), 1X GlutaMAX supplement (Thermo Fisher Scientific, cat. 35050061), 0.1 mg/mL primocin (InvivoGen, cat. ant-pm-2), 10% defined fetal bovine serum, heat inactivated (HyClone Laboratories Inc., cat. SH30070.03HI), 50% L-WRN conditioned media (ATCC, cat. CRL-3276), 1.25 mM N-Acetyl-L-cysteine (Sigma-Aldrich, cat. A9165), 10 mM nicotinamide (Sigma-Aldrich, cat. N0636), 1X B-27 supplement (Thermo Fisher Scientific, cat. 17504044), 1X N-2 supplement (Thermo Fisher Scientific, cat. 17502048), 10 microM Y-27632 dihydrochloride (Tocris Bioscience, cat. 1254), and 50 ng/mL human EGF recombinant protein (Thermo Fisher Scientific, cat. PHG0311). The 485176-168-R4-J1-PDC line was cultured in Panc media, which includes all 6C/Colon 1B media components plus 100 ng/mL human FGF-10 (Thermo Fisher Scientific, cat. 100-26), 500 nM SB-431542 (Selleckchem, cat. S1067), and gastrin (Tocris, cat. 3006).
# […]
# [1] = second compound 0.0316 µM, first compound 0.0316 µM
# [2] = second compound 0.0316 µM, first compound 0.1 µM
# [3] = second compound 0.0316 µM, first compound 0.316 µM
# [4] = second compound 0.0316 µM, first compound 1 µM
# [5] = second compound 0.0316 µM, first compound 3.16 µM
# [6] = second compound 0.0316 µM, first compound 10 µM
# [7] = second compound 0.1 µM, first compound 0.0316 µM
# [8] = second compound 0.1 µM, first compound 0.1 µM
# [9] = second compound 0.1 µM, first compound 0.316 µM
# [10] = second compound 0.1 µM, first compound 1 µM
# [11] = second compound 0.1 µM, first compound 3.16 µM
# [12] = second compound 0.1 µM, first compound 10 µM
# [13] = second compound 0.316 µM, first compound 0.0316 µM
# [14] = second compound 0.316 µM, first compound 0.1 µM
# [15] = second compound 0.316 µM, first compound 0.316 µM
# [16] = second compound 0.316 µM, first compound 1 µM
# [17] = second compound 0.316 µM, first compound 3.16 µM
# [18] = second compound 0.316 µM, first compound 10 µM
# [19] = second compound 1 µM, first compound 0.0316 µM
# [20] = second compound 1 µM, first compound 0.1 µM
# [21] = second compound 1 µM, first compound 0.316 µM
# [22] = second compound 1 µM, first compound 1 µM
# [23] = second compound 1 µM, first compound 3.16 µM
# [24] = second compound 1 µM, first compound 10 µM
# [25] = second compound 3.16 µM, first compound 0.0316 µM
# [26] = second compound 3.16 µM, first compound 0.1 µM
# [27] = second compound 3.16 µM, first compound 0.316 µM
# [28] = second compound 3.16 µM, first compound 1 µM
# [29] = second compound 3.16 µM, first compound 3.16 µM
# [30] = second compound 3.16 µM, first compound 10 µM
# [31] = second compound 10 µM, first compound 0.0316 µM
# [32] = second compound 10 µM, first compound 0.1 µM
# [33] = second compound 10 µM, first compound 0.316 µM
# [34] = second compound 10 µM, first compound 1 µM
# [35] = second compound 10 µM, first compound 3.16 µM
# [36] = second compound 10 µM, first compound 10 µM
# 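Also: spheroids exposed to agents for one week before reading.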
# 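For viability, T/C in this document: 100% = DMSO vehicle control viability.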
smiles,measurement,setting,value
CC(C)n1c(=O)n(C)c2cnc3cc(F)c(-c4ccc(OCCCN5CCCCC5)nc4)cc3c21 + CN(C)c1ccc(Nc2c3ccc(NC(=O)CCN4CCCC4)cc3nc3cc(NC(=O)CCN4CCCC4)ccc23)cc1,IC50,second compound 0.0316 µM,> 10000 nM
same,IC50,second compound 0.1 µM,> 10000 nM
same,IC50,second compound 0.316 µM,> 10000 nM
same,IC50,second compound 1 µM,> 10000 nM
same,IC50,second compound 3.16 µM,8350 nM
same,IC50,second compound 10 µM,288 nM
same,"viability, T/C",[1],117%
same,"viability, T/C",[2],108%
same,"viability, T/C",[3],110%
same,"viability, T/C",[4],93.5%
same,"viability, T/C",[5],115%
same,"viability, T/C",[6],109%
same,"viability, T/C",[7],98.6%
same,"viability, T/C",[8],105%
same,"viability, T/C",[9],101%
same,"viability, T/C",[10],95.3%
same,"viability, T/C",[11],116%
same,"viability, T/C",[12],106%
same,"viability, T/C",[13],101%
same,"viability, T/C",[14],103%
same,"viability, T/C",[15],91%
same,"viability, T/C",[16],107%
same,"viability, T/C",[17],115%
same,"viability, T/C",[18],85.2%
same,"viability, T/C",[19],112%
same,"viability, T/C",[20],90.2%
same,"viability, T/C",[21],77%
same,"viability, T/C",[22],96.8%
same,"viability, T/C",[23],97.5%
same,"viability, T/C",[24],86%
same,"viability, T/C",[25],101%
same,"viability, T/C",[26],81%
same,"viability, T/C",[27],63.6%
same,"viability, T/C",[28],63.7%
same,"viability, T/C",[29],55.1%
same,"viability, T/C",[30],46.7%
same,"viability, T/C",[31],64%
same,"viability, T/C",[32],57%
same,"viability, T/C",[33],51.2%
same,"viability, T/C",[34],34.8%
same,"viability, T/C",[35],22%
same,"viability, T/C",[36],5.89%
CC1COCCN1c1cc(C2(O)CC3CCC(C2)O3)c2cnn(-c3ccn[nH]3)c2n1 (centres undefined) + CN(C)c1ccc(Nc2c3ccc(NC(=O)CCN4CCCC4)cc3nc3cc(NC(=O)CCN4CCCC4)ccc23)cc1,IC50,second compound 0.0316 µM,44.6 nM
same,IC50,second compound 0.1 µM,35.1 nM
same,IC50,second compound 0.316 µM,31.6 nM
same,IC50,second compound 1 µM,36.1 nM
same,IC50,second compound 3.16 µM,< 31.6 nM
same,IC50,second compound 10 µM,< 31.6 nM
same,"viability, T/C",[1],60.7%
same,"viability, T/C",[2],20.8%
same,"viability, T/C",[3],22.1%
same,"viability, T/C",[4],27.8%
same,"viability, T/C",[5],32.3%
same,"viability, T/C",[6],20.1%
same,"viability, T/C",[7],52.4%
same,"viability, T/C",[8],18.3%
same,"viability, T/C",[9],24%
same,"viability, T/C",[10],26.1%
same,"viability, T/C",[11],32.9%
same,"viability, T/C",[12],19.2%
same,"viability, T/C",[13],50.1%
same,"viability, T/C",[14],20.1%
same,"viability, T/C",[15],23.8%
same,"viability, T/C",[16],31.3%
same,"viability, T/C",[17],31.9%
same,"viability, T/C",[18],19.6%
same,"viability, T/C",[19],53.5%
same,"viability, T/C",[20],17.6%
same,"viability, T/C",[21],17.9%
same,"viability, T/C",[22],26.4%
same,"viability, T/C",[23],37.4%
same,"viability, T/C",[24],14.2%
same,"viability, T/C",[25],47%
same,"viability, T/C",[26],21.5%
same,"viability, T/C",[27],18.9%
same,"viability, T/C",[28],27.6%
same,"viability, T/C",[29],34.1%
same,"viability, T/C",[30],17.2%
same,"viability, T/C",[31],49.3%
same,"viability, T/C",[32],30.1%
same,"viability, T/C",[33],27.9%
same,"viability, T/C",[34],25.3%
same,"viability, T/C",[35],28.4%
same,"viability, T/C",[36],13.3%
